What was measured:
Format in all cases: cell-based, human
aRMS and eRMS cells = experiment: MTT cell viability assay, RMS cell lines (summary statements); conditions: alveolar and embryonal RMS cells
Protocol: (§1) RH30 human aRMS cells (kindly provided by Associate Professor Judith Davie, Southern Illinois University), AX-OH-1 human aRMS and FL-OH-1 human eRMS cells (kindly provided by Professor Stefan Bath, University of Cape Town) were cultured in Roswell Park Memorial Institute Medium (RPMI)-1640 (Sigma Aldrich, Missouri, USA). […] Cell morphology was monitored using an Olympus CKX41 inverted microscope (MSAC Ltd, UK) and imaged with an EVOS™ XL AMEX1000 Core Imaging System (Thermo Fisher Scientific, Massachusetts, USA).
(§2) Cells were seeded in 96-well plates and treated the next day with a range of AJ-5 concentrations (0.1–1.0 μM) or vehicle ([…]) for 48 h. Cell viability was measured using the 3-(4,5-dimethylthiazol-2-yl)-2,5-diphenyl-trazolium bromide (MTT) assay (11465007001; Sigma Aldrich) according to the manufacturer’s instructions. Mean cell viability was calculated as a percentage of the mean vehicle control. At least three independent experiments in quadruplicate were performed from which the half maximal inhibitory concentration (IC50) was determined using GraphPad Prism version 6.0 (GraphPad Software, California, USA). The selectivity index (SI) was determined by dividing the IC50 of a normal cell line by the IC50 of a cancer cell line.

AX-OH-1 cells = experiment: MTT cell viability assay, AX-OH-1; conditions: AX-OH-1 (aRMS), 48 h
Protocol: as §1, §2

[1] = test system: γH2AX, p-ATM, p-Chk2, p-p38, p21 in RH30 and RD cells; experiment: Western blotting and immunocytochemistry of DNA damage and stress pathway proteins
Protocol: Cells were lysed at 4 °C in whole-cell lysis buffer (0.125 M Tris-HCl pH 6.8, 4% SDS, 0.2% glycerol, 0.1% β-mercaptoethanol and a pinch of bromophenol blue) and boiled for 10 min. Proteins were resolved by SDS-PAGE (6–15% gels) and transferred to Hybond ECL membranes (Amersham, UK). The membranes were incubated with primary antibodies: rabbit polyclonal antibodies to phospho-histone H2A.X (Ser139) (#2577), phospho-chk2 (Thr68) (#221), phospho-p38 MAPK (Thr180/Tyr182) (#9211), cleaved caspase-3 (Asp175) (#9661), PARP (#9542), caspase-9 (#9502), LC3B (#2775), p38 MAPK (#9212), rabbit monoclonal antibody to cleaved caspase-7 (Asp198) (D6H1) (#8438), mouse monoclonal antibodies to phospho-ATM (Ser1981) (D6H9) (#5883), Cyclin B1 (V152) (#4135), Caspase-8 (1C12) (#9746), SQSTM1/p62 (D5L7G) (#88588) from Cell Signaling Technology (Massachusetts, USA); mouse monoclonal antibody to p53 (DO-1) (sc-126), rabbit polyclonal antibodies to p21 (C-19) (sc-397), cyclin A (H-432) (sc-751), cyclin B1 (H-433)(sc-752), PARP-1 (H-250) (sc-7150) from Santa Cruz Biotechnology (Texas, USA); rabbit polyclonal antibody to p38 MAP kinase (M0800) from Sigma Aldrich. After primary antibody incubation, membranes were incubated with goat anti-rabbit or goat anti-mouse HRP-conjugated secondary antibodies (Bio-Rad Laboratories, California, USA). Antibody reactive proteins were visualized by enhanced chemiluminescence using SuperSignal West Pico Chemiluminescent Substrate Kit (Thermo Fisher Scientific) or WesternBright ECL HRP Substrate Kit (Advansta, California, USA). Densitometry readings were obtained using ImageJ v1.50i[58] and protein expression levels were represented as a ratio of protein of interest/p38 loading control normalized to the vehicletreated control sample where appropriate. All blots are representative of at least two independent repeats.
Cells were plated on glass coverslips and treated with IC50 AJ-5 or vehicle. […] For quantification, mean fluorescence was measured from at least 20 fields of view per treatment condition and pooled from three independent repeats.

**Q.** Which IC50 (aRMS and eRMS cells) does the source give for `CC(C)c1cccc(C(C)C)c1[N+]1=Cc2cccc[c]2[Pd-2]1([Cl])[P+](CC[P+](c1ccccc1)(c1ccccc1)[Pd-2]1([Cl])[c]2ccccc2C=[N+]1c1c(C(C)C)cccc1C(C)C)(c1ccccc1)c1ccccc1` (centres unmarked) [AJ-5] here?
**A.** Its IC50 is no more than 200 nM.

**Q.** What about the IC50 (AX-OH-1 cells) of the same compound?
**A.** Its IC50 is no more than 200 nM.

**Q.** What about the γH2AX levels ([1]; 0.1 µM or IC50, 24 and 48 h, western blotting) of the same compound?
**A.** The γH2AX levels was “dose-dependent increase”.

**Q.** What about the p21 levels ([1]; IC50 concentrations, pronounced after 24 h) of the same compound?
**A.** The p21 levels was “increased”.

**Q.** What about the “Levels of phosphorylated ATM, CHK2 and p38” value ([1]; western blotting) of the same compound?
**A.** Its value is “increased levels”.

From publication PMC6349869, “The palladacycle complex AJ-5 induces apoptotic cell death while reducing autophagic flux in rhabdomyosarcoma cells” (Cell Death Discovery, 2019)
